Measurements as given in a compilation of properties of binary mixtures (doi:10.1016/j.jct.2019.105906).

Assay: xn = mol fraction of the nth substance listed
Conditions: 100 kPa

Structure (SMILES): CCCC[n+]1ccn(C)c1.F[P-](F)(F)(F)(F)F + CCOC(C)=O
- speed of sound (298.15 K, x1 = 0.1012): 1182.1 m/s
- speed of sound (298.15 K, x1 = 0.1992): 1223.3 m/s
- speed of sound (298.15 K, x1 = 0.312): 1269.2 m/s
- speed of sound (298.15 K, x1 = 0.3985): 1302 m/s
- speed of sound (298.15 K, x1 = 0.5056): 1337.9 m/s
- speed of sound (298.15 K, x1 = 0.7054): 1391.7 m/s
- speed of sound (298.15 K, x1 = 0.7963): 1410.1 m/s
- speed of sound (298.15 K, x1 = 0.9185): 1430.5 m/s
- speed of sound (298.15 K, x1 = 1): 1443.8 m/s
- speed of sound (303.15 K, x1 = 0.1012): 1161.8 m/s
- speed of sound (303.15 K, x1 = 0.1992): 1205 m/s
- speed of sound (303.15 K, x1 = 0.312): 1252.8 m/s
- speed of sound (303.15 K, x1 = 0.7054): 1378.8 m/s
- speed of sound (303.15 K, x1 = 0.7963): 1397.4 m/s
- speed of sound (303.15 K, x1 = 1): 1431.7 m/s
- speed of sound (308.15 K, x1 = 0.1012): 1141.8 m/s
- speed of sound (308.15 K, x1 = 0.1992): 1186.7 m/s
- speed of sound (308.15 K, x1 = 0.5996): 1339.5 m/s
- speed of sound (308.15 K, x1 = 0.7054): 1366 m/s
- speed of sound (308.15 K, x1 = 0.9185): 1405.6 m/s
- speed of sound (308.15 K, x1 = 1): 1419.8 m/s
- speed of sound (313.15 K, x1 = 0.1012): 1121.4 m/s
- speed of sound (313.15 K, x1 = 0.312): 1220.1 m/s
- speed of sound (313.15 K, x1 = 0.3985): 1256 m/s
- speed of sound (313.15 K, x1 = 0.5056): 1297.5 m/s
- speed of sound (313.15 K, x1 = 0.5996): 1325.9 m/s
- speed of sound (313.15 K, x1 = 0.7054): 1353.2 m/s
- speed of sound (313.15 K, x1 = 0.7963): 1371.9 m/s
- speed of sound (318.15 K, x1 = 0.1012): 1101.1 m/s
- speed of sound (318.15 K, x1 = 0.312): 1203.7 m/s
- speed of sound (318.15 K, x1 = 0.3985): 1240.6 m/s
- speed of sound (318.15 K, x1 = 0.5996): 1312.6 m/s
- speed of sound (318.15 K, x1 = 0.7054): 1340.4 m/s
- speed of sound (323.15 K, x1 = 0.1012): 1081 m/s
- speed of sound (323.15 K, x1 = 0.1992): 1132.1 m/s
- speed of sound (323.15 K, x1 = 0.312): 1187.3 m/s
- speed of sound (323.15 K, x1 = 0.3985): 1225.2 m/s
- speed of sound (323.15 K, x1 = 0.5996): 1299.1 m/s
- speed of sound (323.15 K, x1 = 0.7054): 1327.5 m/s
- speed of sound (323.15 K, x1 = 0.7963): 1346.6 m/s
- speed of sound (323.15 K, x1 = 0.9185): 1368.4 m/s
- speed of sound (323.15 K, x1 = 1): 1385.6 m/s

Structure (SMILES): CCOC(C)=O + CCCC[n+]1ccn(C)c1.F[P-](F)(F)(F)(F)F
- speed of sound (303.15 K, x2 = 0): 1120.8 m/s
- speed of sound (308.15 K, x2 = 0): 1098.7 m/s
- speed of sound (313.15 K, x2 = 0): 1076.4 m/s
- speed of sound (318.15 K, x2 = 0): 1054.1 m/s
- speed of sound (323.15 K, x2 = 0): 1032 m/s
